Measurements published in patent publication US20170275298A1, “INHIBITORS OF THE RENAL OUTER MEDULLARY POTASSIUM CHANNEL” (Merck Sharp & Dohme Corp., priority 2014, published 2017).

biological target: T1, hROMK (hKir1.1) (Homo sapiens, UniProt P48048); test: Thallium Flux Assay (ROMK channel functional thallium flux assay); format: cell-based; settings: HEK293 cells stably expressing hROMK (hKir1.1); FluxOR thallium flux, FLIPR-Tetra, 30 min compound incubation; read-out: ROMK TI IC50
T1 construct: expressed in transfected cells
T1 sequence (P48048 1-391): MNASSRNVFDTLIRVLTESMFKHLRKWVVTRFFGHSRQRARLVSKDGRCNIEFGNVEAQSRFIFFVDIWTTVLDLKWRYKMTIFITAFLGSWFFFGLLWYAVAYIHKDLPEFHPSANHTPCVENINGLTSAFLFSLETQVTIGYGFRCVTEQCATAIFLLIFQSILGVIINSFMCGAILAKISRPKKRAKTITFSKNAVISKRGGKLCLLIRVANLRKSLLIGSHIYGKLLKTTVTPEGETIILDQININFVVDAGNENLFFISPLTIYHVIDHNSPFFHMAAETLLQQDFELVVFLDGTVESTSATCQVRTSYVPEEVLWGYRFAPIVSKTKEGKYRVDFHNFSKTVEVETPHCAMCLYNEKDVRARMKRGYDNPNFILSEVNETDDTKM
Summary of the method: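 HEK293 cells stably expressing hROMK (hKir1.1) loaded with FluxOR dye 90 min at ambient temperature, then compound 30 min before thallium/potassium stimulant (final 3 mM Tl/0.3 mM K). ROMK-sensitive flux defined by 3 μM standard inhibitor; data as % fluorescence change.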

First: Cc1c([C@@H](O)CN2CCC3(CC2)CCN(c2ccc(OC(F)F)nc2)C3=O)ccc2c1COC2=O [Example 76, (R)-2-(6-(difluoromethoxy)pyridin-3-yl)-8-(2-hydroxy-2-(4-methyl-1-oxo-1,3-dihydroisobenzofuran-5-yl)ethyl)-2,8-diazaspiro[4.5]decan-1-one]
Second: Cc1c([C@@H](O)CN2CCC3(CC2)CCN(c2ccnnc2)C3=O)ccc2c1COC2=O [Example 90, (R)-8-(2-hydroxy-2-(4-methyl-1-oxo-1,3-dihydroisobenzofuran-5-yl)ethyl)-2-(pyridazin-4-yl)-2,8-diazaspiro[4.5]decan-1-one]
The IC50 of the first is 2.7-fold higher: 320 nM for the first, 120 nM for the second. The second is the more potent here.

First: COc1ccncc1N1CCC2(CCN(C[C@H](O)c3ccc4c(c3C)COC4=O)CC2)C1=O [Example 77, (R)-8-(2-hydroxy-2-(4-methyl-1-oxo-1,3-dihydroisobenzofuran-5-yl)ethyl)-2-(4-methoxypyridin-3-yl)-2,8-diazaspiro[4.5]decan-1-one]
Second: COc1nccc(N2CCC3(CCN(C[C@H](O)c4ccc5c(c4C)COC5=O)CC3)C2=O)n1 [Example 80, (R)-8-(2-hydroxy-2-(4-methyl-1-oxo-1,3-dihydroisobenzofuran-5-yl)ethyl)-2-(2-methoxypyrimidin-4-yl)-2,8-diazaspiro[4.5]decan-1-one]
The IC50 of the first is 49-fold higher: 697 nM for the first, 14.3 nM for the second.

Compared with `Cc1c([C@@H](O)CN2CCC3(CC2)CC(=O)N(c2ccncc2)C3)ccc2c1COC2=O` [Example 79, (R)-8-(2-hydroxy-2-(4-methyl-1-oxo-1,3-dihydroisobenzofuran-5-yl)ethyl)-2-(pyridin-4-yl)-2,8-diazaspiro[4.5]decan-3-one], `Cc1c([C@@H](O)CN2CCC3(CC2)CN(c2ccncc2)C(=O)O3)ccc2c1COC2=O` [Example 86, (R)-8-(2-hydroxy-2-(4-methyl-1-oxo-1,3-dihydroisobenzofuran-5-yl)ethyl)-3-(pyridin-4-yl)-1-oxa-3,8-diazaspiro[4.5]decan-2-one] is 9.9-fold higher in IC50: 56.7 nM for the first, 561 nM for the second.

Compared with `Cc1cc(N2CCCC3(CCN(C[C@H](O)c4ccc5c(c4C)COC5=O)CC3)C2=O)sn1` [Example 81, (R)-9-(2-hydroxy-2-(4-methyl-1-oxo-1,3-dihydroisobenzofuran-5-yl)ethyl)-2-(3-methylisothiazol-5-yl)-2,9-diazaspiro[5.5]undecan-1-one], `Cc1c([C@@H](O)CN2CCC3(CC2)CCN(c2sncc2Br)C3=O)ccc2c1COC2=O` [Example 103, (R)-2-(4-bromoisothiazol-5-yl)-8-(2-hydroxy-2-(4-methyl-1-oxo-1,3-dihydroisobenzofuran-5-yl)ethyl)-2,8-diazaspiro[4.5]decan-1-one] is 2.9-fold lower in IC50: 175 nM for the first, 61.4 nM for the second.

First: Cc1c([C@@H](O)CN2CCC3(CC2)CCN(c2ccc(=O)n(C)c2)C3=O)ccc2c1COC2=O [Example 82, (R)-8-(2-hydroxy-2-(4-methyl-1-oxo-1,3-dihydroisobenzofuran-5-yl)ethyl)-2-(1-methyl-6-oxo-1,6-dihydropyridin-3-yl)-2,8-diazaspiro[4.5]decan-1-one]
Second: Cc1c([C@@H](O)CN2CCC3(CC2)CCN(c2cn(C)c(=O)cn2)C3=O)ccc2c1COC2=O [Example 94, (R)-8-(2-hydroxy-2-(4-methyl-1-oxo-1,3-dihydroisobenzofuran-5-yl)ethyl)-2-(4-methyl-5-oxo-4,5-dihydropyrazin-2-yl)-2,8-diazaspiro[4.5]decan-1-one]
The IC50 of the first is 1.6-fold higher: 424 nM for the first, 272 nM for the second.

Compared with `Cc1c([C@@H](O)CN2CCC3(CC2)CCN(c2nc(CO)ns2)C3=O)ccc2c1COC2=O` [Example 83, (R)-8-(2-hydroxy-2-(4-methyl-1-oxo-1,3-dihydroisobenzofuran-5-yl)ethyl)-2-(3-(hydroxymethyl)-1,2,4-thiadiazol-5-yl)-2,8-diazaspiro[4.5]decan-1-one], `Cc1c([C@@H](O)CN2CCC3(CC2)CCN(c2ccnc(Cl)n2)C3=O)ccc2c1COC2=O` [Example 92, (R)-2-(2-chloropyrimidin-4-yl)-8-(2-hydroxy-2-(4-methyl-1-oxo-1,3-dihydroisobenzofuran-5-yl)ethyl)-2,8-diazaspiro[4.5]decan-1-one] is 7.6-fold lower in IC50: 832 nM for the first, 110 nM for the second.

Going from `COc1cc(N2CC3(CCN(C[C@H](O)c4ccc5c(c4C)COC5=O)CC3)CC2=O)ccn1` [Example 84, (R)-8-(2-hydroxy-2-(4-methyl-1-oxo-1,3-dihydroisobenzofuran-5-yl)ethyl)-2-(2-methoxypyridin-4-yl)-2,8-diazaspiro[4.5]decan-3-one] to `Cc1c([C@@H](O)CN2CCC3(CC2)CC(=O)N(c2ccnc(Cl)n2)C3)ccc2c1COC2=O` [Example 91, (R)-2-(2-chloropyrimidin-4-yl)-8-(2-hydroxy-2-(4-methyl-1-oxo-1,3-dihydroisobenzofuran-5-yl)ethyl)-2,8-diazaspiro[4.5]decan-3-one], the IC50 rises from 149 nM to 775 nM (5.2-fold). The first is the more potent here.

Going from `Cc1c([C@@H](O)CN2CCC3(CCCN(c4ccncc4)C3=O)CC2)ccc2c1COC2=O` [Example 85, (R)-9-(2-hydroxy-2-(4-methyl-1-oxo-1,3-dihydroisobenzofuran-5-yl)ethyl)-2-(pyridin-4-yl)-2,9-diazaspiro[5.5]undecan-1-one] to `Cc1cc(N2CCC3(CCN(C[C@H](O)c4ccc5c(c4C)COC5=O)CC3)C2=O)ccn1` [Example 88, (R)-8-(2-hydroxy-2-(4-methyl-1-oxo-1,3-dihydroisobenzofuran-5-yl)ethyl)-2-(2-methylpyridin-4-yl)-2,8-diazaspiro[4.5]decan-1-one], the IC50 falls from 801 nM to 130 nM (6.2-fold). The second is the more potent here.

Compared with `Cc1c([C@@H](O)CN2CCC3(CC2)CCN(c2cc(C(F)(F)F)ncn2)C3=O)ccc2c1COC2=O` [Example 87, (R)-8-(2-hydroxy-2-(4-methyl-1-oxo-1,3-dihydroisobenzofuran-5-yl)ethyl)-2-(6-(trifluoromethyl)pyrimidin-4-yl)-2,8-diazaspiro[4.5]decan-1-one], `Cc1c([C@@H](O)CN2CCC3(CC2)OCCN(c2ccc(=O)n(C)n2)C3=O)ccc2c1COC2=O` [Example 102, (R)-9-(2-hydroxy-2-(4-methyl-1-oxo-1,3-dihydroisobenzofuran-5-yl)ethyl)-4-(1-methyl-6-oxo-1,6-dihydropyridazin-3-yl)-1-oxa-4,9-diazaspiro[5.5]undecan-5-one] is 1.8-fold lower in IC50: 643 nM for the first, 349 nM for the second. The second is the more potent here.

Compared with `COc1nccc(N2CCC3(CCN(C[C@H](O)c4ccc(-n5cnnn5)nc4C)CC3)C2=O)n1` [Example 89, (R)-8-(2-hydroxy-2-(2-methyl-6-(1H-tetrazol-1-yl)pyridin-3-yl)ethyl)-2-(2-methoxypyrimidin-4-yl)-2,8-diazaspiro[4.5]decan-1-one], `Cc1nc(-n2cnnn2)ccc1[C@@H](O)CN1CCC2(CC1)CCN(c1ccc(=O)n(C)n1)C2=O` [Example 93, (R)-8-(2-hydroxy-2-(2-methyl-6-(1H-tetrazol-1-yl)pyridin-3-yl)ethyl)-2-(1-methyl-6-oxo-1,6-dihydropyridazin-3-yl)-2,8-diazaspiro[4.5]decan-1-one] is 3-fold lower in IC50: 787 nM for the first, 259 nM for the second.

`Cc1c([C@@H](O)CN2CCC3(CC2)CN(c2ccc(=O)n(C)n2)C(=O)O3)ccc2c1COC2=O` [Example 95, (R)-8-(2-hydroxy-2-(4-methyl-1-oxo-1,3-dihydroisobenzofuran-5-yl)ethyl)-3-(1-methyl-6-oxo-1,6-dihydropyridazin-3-yl)-1-oxa-3,8-diazaspiro[4.5]decan-2-one] and `Cc1c([C@@H](O)CN2CCC3(CC2)C[C@H](C)N(c2ccc(=O)n(C)n2)C3=O)ccc2c1COC2=O` [Example 97, (S)-8-((R)-2-hydroxy-2-(4-methyl-1-oxo-1,3-dihydroisobenzofuran-5-yl)ethyl)-3-methyl-2-(1-methyl-6-oxo-1,6-dihydropyridazin-3-yl)-2,8-diazaspiro[4.5]decan-1-one] are within 1.5-fold of each other in IC50: 488 nM for the first, 378 nM for the second.

`Cn1nc(N2CCC3(CCN(C[C@@H](O)c4cccc(-n5cnnn5)c4)CC3)C2=O)ccc1=O` [Example 96, (S)-8-(2-(3-(1H-tetrazol-1-yl)phenyl)-2-hydroxyethyl)-2-(1-methyl-6-oxo-1,6-dihydropyridazin-3-yl)-2,8-diazaspiro[4.5]decan-1-one] and `O=C1N(c2ccns2)CCC12CCN(C[C@H](O)c1ccc(-n3cnnn3)nc1)CC2` [Example 100, (R)-8-(2-(6-(1H-tetrazol-1-yl)pyridin-3-yl)-2-hydroxyethyl)-2-(isothiazol-5-yl)-2,8-diazaspiro[4.5]decan-1-one] are within 1.5-fold of each other in IC50: 702 nM for the first, 769 nM for the second.

Compared with `Cc1c([C@@H](O)CN2CCC3(CC2)C[C@@H](C)N(c2ccc(=O)n(C)n2)C3=O)ccc2c1COC2=O` [Example 98, (R)-8-((R)-2-hydroxy-2-(4-methyl-1-oxo-1,3-dihydroisobenzofuran-5-yl)ethyl)-3-methyl-2-(1-methyl-6-oxo-1,6-dihydropyridazin-3-yl)-2,8-diazaspiro[4.5]decan-1-one], `Cc1nc(-n2cnnn2)ccc1[C@@H](O)CN1CCC2(CC1)CCN(c1ncns1)C2=O` [Example 99, (R)-8-(2-hydroxy-2-(2-methyl-6-(1H-tetrazol-1-yl)pyridin-3-yl)ethyl)-2-(1,2,4-thiadiazol-5-yl)-2,8-diazaspiro[4.5]decan-1-one] is 4.4-fold higher in IC50: 54.7 nM for the first, 242 nM for the second.

Work on `O=C1N(c2ccns2)CCC12CCN(C[C@@H](O)c1ccc(-n3cnnn3)nc1)CC2` [Example 101, (S)-8-(2-(6-(1H-tetrazol-1-yl)pyridin-3-yl)-2-hydroxyethyl)-2-(isothiazol-5-yl)-2,8-diazaspiro[4.5]decan-1-one] yielded an IC50 of 203 nM.
